Laboratory results from patent publication US20240033207A1, “TOPICALLY ADMINISTRABLE LYSATE (LY) OF DEDIFFERENTIATED CELLS OF THE PLANT HELICHRYSUM STOECHAS FOR ELIMINATING OR REDUCING INFLAMMATION OF THE SKIN” (SOCIETE D'EXPLOITATION DE PRODUITS POUR LES INDUSTRIES …, priority 2020, published 2024).
Marks after values point to notes of the source that are not given here.

System: normal human keratinocytes (NHEK) cocultured with dendritic cells (DC)
Test: Coculture of primary human keratinocytes with dendritic cells, PMA/A23187/PUFA stimulation, lipid mediators in supernatant by LC-MS/MS
Assay type: cell-based
Description: Dendritic cells form part of the cells of the cutaneous immune system, and they are involved in the early inflammatory response. This model is targeted at mimicking the interactions which take place naturally in the skin between the keratinocytes and the cells of the immune system, and it makes it possible to evaluate the impact of active principles on the processes of resolution of inflammation. Briefly, normal human keratinocytes (NHEK) are inoculated in inserts and cultured without contact with dendritic cells (DC) inoculated in the bottom of the wells. The cells are pretreated with the composition CA or glycerol. After 20 hours of incubation, the inflammatory stimulus (mixture of phorbol 12-myristate 13-acetate (PMA) and of calcium ionophore A23187), polyunsaturated fatty acids (PUFAs, lipid precursors of inflammation mediators, eicosanoids) and the compounds (composition CA or glycerol) were again added and incubated for 1 hour. Subsequently, the culture supernatants were collected for analysis of lipid mediators. The experiments were replicated three times. […] The amounts of 5-HETE, LTB4, 12-HETE, 15-HETE and 17-HDOHE are measured by the use of an LC-MS/MS method using a UPLC system (Agilent LC1290 Infinity) coupled to an Agilent 6490 triple quadrupole mass spectrometer (Agilent Technologies) equipped with electrospray ionization operating in negative mode, and are expressed in picograms per culture well (pg/well). The values obtained were expressed as mean+/-sem [standard error of the mean=standard deviation/square root (number of values)]. For each condition, the percentages of activation were calculated as follows: % activation=[mean (condition)]/[mean (stimulated cells)]×100-100. • stimulated cells: PMA/A23187/PUFA-treated cells in the case where the condition studied is the treatment with glycerol. • stimulated cells: cells treated with PMA/A23187/PUFA+0.1% DMSO in the case where the condition studied is the treatment with the composition CA. The statistical analysis was carried out by a Student's test and a significance threshold was set at 5%, the conditions being compared in pairs. A difference between the effectiveness of two products was considered: • significant if p<0.05; • “at the limit of significance” if 0.05≤p<0.1; • and not significant if p>0.1.

[1] = 0.01%, PMA/A23187/PUFA-stimulated coculture supernatant, proresolving mediator
[2] = 0.01%, vs respective stimulated cells (PMA/A23187/PUFA for glycerol, + 0.1% DMSO for composition CA)
[3] = 0.05%, PMA/A23187/PUFA-stimulated NHEK/DC coculture supernatant, proinflammatory mediator
[4] = 0.05%, vs PMA/A23187/PUFA-treated cells

OCC(O)CO [Glycerol]
12-HETE (pg/well) Mean +/− SEM [1]: 15 +/− 1 pg/well
15-HETE (pg/well) Mean +/− SEM [1]: 273 +/− 26 pg/well
17-HDOHE (pg/well) Mean +/− SEM [1]: 16654 +/− 1409 pg/well
12-HETE % activation [2]: 58%^15
15-HETE % activation [2]: 63%*
17-HDOHE % activation [2]: +13%
5-HETE (pg/well) Mean +/− SEM [3]: 1152 +/− 201 pg/well
LTB4 (pg/well) Mean +/− SEM [3]: 400 +/− 38 pg/well
5-HETE % activation [4]: 144%*
LTB4 % activation [4]: 88%*
